# Experimental data from patent publication EP1077942B1, “CARBOXY SUBSTITUTED CARBOXAMIDE DERIVATIVES AS TACHYKININ RECEPTOR ANTAGONISTS” (Aventis Pharmaceuticals Inc., priority 1998, dated 1999).
# Counter-ions that a name gives are not always drawn.
# Assays:
# NK1 receptor = molecular target: T1, NK1 receptor (Cavia porcellus, UniProt P30547); experiment: Antagonism of iodinated tachykinin binding to NK1 receptor (Example A); settings: guinea pig lungs membranes; 125I-Bolton Hunter Lys-3 labeled substance P 0.1 nM; mean of several experiments
# T1 construct: evaluated in guinea pig lungs (Keystone Biologicals, Cleveland, OH); tissue Keystone Biologicals, Cleveland, OH; host or cells: guinea pig lung membrane homogenate
# T1 sequence (P30547 whole entry): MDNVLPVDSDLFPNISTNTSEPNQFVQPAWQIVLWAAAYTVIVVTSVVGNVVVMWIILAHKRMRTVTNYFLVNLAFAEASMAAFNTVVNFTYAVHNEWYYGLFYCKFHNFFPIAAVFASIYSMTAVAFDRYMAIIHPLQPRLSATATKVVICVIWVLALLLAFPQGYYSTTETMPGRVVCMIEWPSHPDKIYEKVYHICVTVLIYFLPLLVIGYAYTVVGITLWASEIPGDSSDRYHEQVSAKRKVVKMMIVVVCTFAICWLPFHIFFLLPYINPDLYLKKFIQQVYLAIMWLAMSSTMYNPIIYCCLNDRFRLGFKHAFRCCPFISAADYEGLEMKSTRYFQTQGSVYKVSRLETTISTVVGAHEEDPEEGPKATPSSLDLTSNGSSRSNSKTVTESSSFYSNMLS
# Procedure: (§1) Antagonism of iodinated tachykinin binding to NK1 and NK2 receptors by putative antagonists
# (§2) One skilled in the art can determine the NK1 receptor and NK2 receptor affinity in vitro as follows. The NK1 receptor affinity of tachykinin antagonists is evaluated in guinea pig lungs (Keystone Biologicals, Cleveland, OH) and affinity for the NK2 receptor is evaluated in HSKR-1 cells (which are mouse 3T3 fibroblasts expressing the human jejunal NK2 receptor). Tissues or cells are homogenized with a Polytron in 15 volumes of 50 mM Tris-HCl buffer (pH 7.4, 4°C) and centrifuged. The pellet is resuspended in Tris-HCl buffer and is centrifuged; the pellet is washed twice by resuspension. The final pellet is resuspended at a concentration of 40 mg/ml for tissues and 20 mg/ml for cells in incubation buffer and remains at room temperature for at least 15 min prior to use. […] Filter bound radioactivity is quantitated in a gamma counter. Nonspecific binding is defined as binding in the presence of 1 µM substance P or neurokinin A. Specific binding is calculated by subtracting nonspecific binding from total binding. Competition of iodinated SP or NKA binding by test compounds or standards is expressed as a percentage of this maximum binding. […]
# [1] = molecular target: T2, human jejunal NK2 receptor (Homo sapiens, UniProt P21452); experiment: Antagonism of iodinated tachykinin binding to NK2 receptor (Example A); settings: HSKR-1 cells (mouse 3T3 fibroblasts expressing the human jejunal NK2 receptor); 125 iodohistidyl-1-neurokinin A 0.1 nM; mean of several experiments
# T2 construct: expressed in transfected cells; host or cells: HSKR-1 cells (mouse 3T3 fibroblasts)
# T2 sequence (P21452 1-398): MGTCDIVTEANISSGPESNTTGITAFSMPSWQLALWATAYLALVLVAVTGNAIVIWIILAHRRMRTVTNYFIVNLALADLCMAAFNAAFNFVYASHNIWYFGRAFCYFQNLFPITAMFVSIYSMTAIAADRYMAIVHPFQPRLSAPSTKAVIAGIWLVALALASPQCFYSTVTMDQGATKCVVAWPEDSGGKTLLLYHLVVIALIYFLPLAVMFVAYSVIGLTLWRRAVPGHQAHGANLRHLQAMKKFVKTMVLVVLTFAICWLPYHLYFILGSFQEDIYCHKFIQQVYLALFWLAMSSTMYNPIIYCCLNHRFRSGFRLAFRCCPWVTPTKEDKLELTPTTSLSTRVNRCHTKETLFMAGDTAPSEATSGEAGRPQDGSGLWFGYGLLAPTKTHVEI
# Procedure: as §1, §2
smiles,measurement,setting,value
"CCOC(=O)CN1CCN(C(=O)C2(c3ccccc3)CCN(CC[C@H](CN(C)C(=O)c3cc(-n4cnnn4)ccc3OC)c3ccc(Cl)c(Cl)c3)CC2)CC1 [Example 1.2, (S)-N-methyl-N-(4-(4-phenyl-4-((4-carboethoxymethylpiperazin-1-yl)carboxamido)piperidin-1-yl) 2-(3,4-dichlorophenyl)butyl)-2-methoxy-5-(1H-tetrazol-1-yl)benzamide hydrochloric acid salt]",IC50,NK1 receptor,23 nM
same,IC50,[1],178 nM
